Test results reported in ChEMBL document CHEMBL1201862, “PubChem BioAssay data set” (2004).
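These data come from cells grown in 96-well plates and exposed to compound for 48 hours at five concentrations. At the GI50, growth is halved.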 Active and inactive are the calls of the source. No stated cut-off is given here; in the data, active = GI50 up to about 1.1 µM and inactive = higher.

What was measured:
Test in all cases: growth of human tumour cells (NCI), 48 h
SF-295 = system: SF-295
SR = system: SR
K562 = system: K562
UO-31 = system: UO-31
T47D = system: T47D
CCRF-CEM = system: CCRF-CEM
RXF 393 = system: RXF 393
NCI-H226 = system: NCI-H226
TK-10 = system: TK-10
CAKI-1 = system: CAKI-1
SK-MEL-28 = system: SK-MEL-28
MCF7 = system: MCF7
HCT-116 = system: HCT-116
SW-620 = system: SW-620
UACC-257 = system: UACC-257
IGROV-1 = system: IGROV-1
SF-539 = system: SF-539
M14 = system: M14
RPMI-8226 = system: RPMI-8226
NCI-H460 = system: NCI-H460

Structure (SMILES) | GI50 (SF-295) | GI50 (SR) | GI50 (K562) | GI50 (UO-31) | GI50 (T47D) | GI50 (CCRF-CEM) | GI50 (RXF 393) | GI50 (NCI-H226) | GI50 (TK-10) | GI50 (CAKI-1) | GI50 (SK-MEL-28) | GI50 (MCF7) | GI50 (HCT-116) | GI50 (SW-620) | GI50 (UACC-257) | GI50 (IGROV-1) | GI50 (SF-539) | GI50 (M14) | GI50 (RPMI-8226) | GI50 (NCI-H460)
Cn1c2c(c3ccccc31)CCN(CCCCN1CCN(c3ccccc3)CC1)C2=O | > 88.3 µM (inactive) | 8.93 µM (inactive) | 4.15 µM (inactive) | 17.3 µM (inactive) | 3.86 µM (inactive) | 24.5 µM (inactive) | 10.8 µM (inactive) | > 41.8 µM (inactive) | 45 µM (inactive) | 56.4 µM (inactive) | 15.8 µM (inactive) | 19.2 µM (inactive) | 12.9 µM (inactive) | 22.8 µM (inactive) | 5.86 µM (inactive) | > 76.6 µM (inactive) | 34 µM (inactive) | 4.58 µM (inactive) | 17 µM (inactive) | 28.6 µM (inactive)
C/C(=N\NC(=S)N(C)CCN(C)C(=S)N/N=C(\C)c1ccccn1)c1ccccn1 | 0.805 µM (active) | 0.697 µM (active) | 1.55 µM (inactive) | 0.791 µM (active) | 1.84 µM (inactive) | 0.428 µM (active) | 0.0843 µM (active) | 0.316 µM (active) | 0.47 µM (active) | 1.78 µM (inactive) | 1.73 µM (inactive) | 2.77 µM (inactive) | 0.281 µM (active) | 0.662 µM (active) | 0.774 µM (active) | 0.465 µM (active) | 1.66 µM (inactive) | > 100 µM (inactive) | 1.37 µM (inactive) | 0.509 µM (active)
O=C1c2ccccc2CC12Cc1cc3c(cc1C2)CCC3 | > 100 µM (inactive) | 16.7 µM (inactive) | 86.7 µM (inactive) | 69.3 µM (inactive) | > 100 µM (inactive) | 55.3 µM (inactive) | 40.6 µM (inactive) | 15.9 µM (inactive) | > 100 µM (inactive) | > 100 µM (inactive) | 45.8 µM (inactive) | 34.5 µM (inactive) | 30.6 µM (inactive) | 78.2 µM (inactive) | 31.9 µM (inactive) | 87.3 µM (inactive) | > 100 µM (inactive) | 19.5 µM (inactive) | 32 µM (inactive) | 39.9 µM (inactive)
COc1ccc(Nc2nc(N)c(C(=O)c3cccs3)s2)cc1 | 10.9 µM (inactive) | 0.682 µM (active) | 3.64 µM (inactive) | 6.1 µM (inactive) | 15.8 µM (inactive) | 3.38 µM (inactive) | 5.55 µM (inactive) | 5.86 µM (inactive) | 5.08 µM (inactive) | 5 µM (inactive) | 31 µM (inactive) | 5.21 µM (inactive) | 3.22 µM (inactive) | 5.45 µM (inactive) | 9.31 µM (inactive) | 4.43 µM (inactive) | 4.21 µM (inactive) | 13.4 µM (inactive) | 5.92 µM (inactive) | 3.1 µM (inactive)
COc1cc([N+](=O)[O-])ccc1NC1=CC(=O)CCC1 | > 100 µM (inactive) | > 100 µM (inactive) | > 100 µM (inactive) | > 100 µM (inactive) | > 100 µM (inactive) | > 100 µM (inactive) | > 100 µM (inactive) | > 100 µM (inactive) | > 100 µM (inactive) | 49.5 µM (inactive) | 59.4 µM (inactive) | > 100 µM (inactive) | > 100 µM (inactive) | > 100 µM (inactive) | > 100 µM (inactive) | > 100 µM (inactive) | > 100 µM (inactive) | > 100 µM (inactive) | > 100 µM (inactive) | > 100 µM (inactive)
COc1c(C(=O)/C(=N/Nc2cccc(Cl)c2)C(C)=O)c(O)c(OC)c2occc12 | 58.1 µM (inactive) | > 100 µM (inactive) | > 100 µM (inactive) | 37.2 µM (inactive) | 50.8 µM (inactive) | 88.1 µM (inactive) | 34.6 µM (inactive) | > 100 µM (inactive) | > 100 µM (inactive) | > 100 µM (inactive) | > 100 µM (inactive) | > 100 µM (inactive) | > 100 µM (inactive) | 76.4 µM (inactive) | > 100 µM (inactive) | > 100 µM (inactive) | > 100 µM (inactive) | > 100 µM (inactive) | 80.9 µM (inactive) | 65.8 µM (inactive)
Cn1c(CO)ccc1-c1ccc(-c2ccc(CO)[se]2)[se]1 | > 76.4 µM (inactive) | 13.1 µM (inactive) | 1.35 µM (inactive) | > 100 µM (inactive) | 11.9 µM (inactive) | 1.8 µM (inactive) | > 26.2 µM (inactive) | 0.408 µM (active) | 0.0376 µM (active) | 0.0176 µM (active) | 17 µM (inactive) | 0.251 µM (active) | 0.859 µM (active) | 1.58 µM (inactive) | 0.192 µM (active) | 0.0621 µM (active) | 67 µM (inactive) | 10.4 µM (inactive) | 2.39 µM (inactive) | 18.4 µM (inactive)
C=C1C(=O)O[C@@]23C1CC[C@@H](C)C2CC[C@@]1(C)OC31 (stereo not given in full) | 18.2 µM (inactive) | 3.71 µM (inactive) | 7.78 µM (inactive) | 5.69 µM (inactive) | 4.03 µM (inactive) | 3.42 µM (inactive) | 16.7 µM (inactive) | 23.9 µM (inactive) | 4.12 µM (inactive) | 5.75 µM (inactive) | 6.35 µM (inactive) | 5.96 µM (inactive) | 8.65 µM (inactive) | 8.81 µM (inactive) | 6.75 µM (inactive) | 11.7 µM (inactive) | 3.24 µM (inactive) | 3.52 µM (inactive) | 2.9 µM (inactive) | 16.4 µM (inactive)
CC(=O)/C=C/C1=C(C)CCCC1(C)CC(C)C (stereo not given) | 34.2 µM (inactive) | 16 µM (inactive) | 16 µM (inactive) | 36.9 µM (inactive) | 15.3 µM (inactive) | 14.9 µM (inactive) | 14.8 µM (inactive) | 33.5 µM (inactive) | > 100 µM (inactive) | 42.8 µM (inactive) | 40.8 µM (inactive) | 25.2 µM (inactive) | 25.5 µM (inactive) | 18.6 µM (inactive) | 22.2 µM (inactive) | 29.3 µM (inactive) | 31.9 µM (inactive) | 31.6 µM (inactive) | 13.7 µM (inactive) | 29.1 µM (inactive)
C=C[C@]1(C)CC(O)C2C(=C)C(=O)OC2[C@H]1C(=C)C=O (stereo not given in full) | 10.6 µM (inactive) | 1.91 µM (inactive) | 2.52 µM (inactive) | 6.37 µM (inactive) | 3.15 µM (inactive) | 0.925 µM (active) | 2.07 µM (inactive) | 6.59 µM (inactive) | 3.94 µM (inactive) | 4.35 µM (inactive) | 1.3 µM (inactive) | 1.09 µM (active) | 1.64 µM (inactive) | 1.44 µM (inactive) | 1.57 µM (inactive) | 8.87 µM (inactive) | 3.29 µM (inactive) | 2.08 µM (inactive) | 0.859 µM (active) | 14.5 µM (inactive)
